Consider 9 compounds from PubChem BioAssay (NCI).

The structures appear in SMILES notation. Where “and” joins values, the source holds several entries; their conditions need not be identical. Equal values may be shown once.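 Protocol summary: plate cells (96-well), add compound at 5 concentrations, incubate 48 h, interpolate endpoints linearly. Here, GI50 denotes the concentration required for 50% inhibition of growth. TGI is the concentration that stops growth completely.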

Common to all, as to test: NCI tumour cell line growth inhibition, 48 h
The subject of assay [1] is SK-MEL-5 melanoma.
Assay [2] concerns EKVX NSCLC.
The subject of assay [3] is M14 melanoma.
The test system of assay [4] is K-562 leukemia.
Assay [5] concerns RXF 393 renal.
Assay [6] deals with A549 NSCLC.
Assay [7] deals with LOX IMVI melanoma.
Assay [8] has as its system HOP-92 NSCLC.
Assay [9] has as its system MDA-MB-435.
Assay [10] has as its system RPMI-8226 leukemia.

Take `CC/C=C\C[C@H]1C/C=C2/C(=O)C(Cl)=C[C@@H]2C/C=C\CCCC(=O)O1`: the GI50 in assay [1] is 379 nM; in [2], 0.805 µM; in assay [3], 681 nM; in assay [4] it was 96.1 nM; in assay [5] it was 400 nM; in assay [6] it was 748 nM. For the same compound, the GI50 in [7] is 159 nM; in assay [8], 499 nM; in [9], 169 nM; in assay [10], 81.9 nM. The TGI in assay [1] is 0.759 µM; in assay [2] it was 4.62 µM; in assay [3] it was 3.08 µM; in [4], 3.14 µM; in assay [5] it was 0.802 µM; in assay [6], 2.75 µM. In addition, the TGI in assay [7] worked out at 0.52 µM; in assay [8], 1.6 µM; in [9], 1.43 µM; in [10], 0.492 µM.
For the compound `N=C(CC(=O)Nc1ccccn1)c1ccccc1`, the TGI in [1], in assay [2], in assay [3], in [4], in [5] and in assay [6] was > 100 µM each time. In addition, the TGI in [7], in assay [8], in [9] and in assay [10] was > 100 µM throughout.
Consider `CNC(=O)c1cc(Oc2ccc(NC(=O)Nc3cc(C(C)(C)C)nn3-c3ccc4ncccc4c3)c(F)c2)ccn1`, for which the GI50 is 1350 nM and 1510 nM in assay [1]; 2.72 µM in assay [2]; 370 nM and 395 nM in [3]; 15.1 nM and 27.5 nM in assay [4]; 821 nM and 647 nM in assay [5]; 1830 nM and 1800 nM in assay [6]. Also, the GI50 in [7] is 405 nM; in assay [8], 460 nM and 446 nM; in [9], 587 nM and 387 nM; in [10] it was 2400 nM and 2500 nM. The TGI in assay [1] was 2.86 µM and 3.14 µM; in [2] it was 8.61 µM; in assay [3], 2.49 µM and 2 µM; in [4], > 100 µM; in [5], 2.61 µM and 2.05 µM; in [6] it was 7.72 µM and 6.5 µM. Besides, the TGI in [7] is 2.08 µM; in assay [8], 4.85 µM and 4.6 µM; in assay [9], 3.87 µM and 1.75 µM; in assay [10], 6.51 µM and 5.91 µM.
For `CCC(c1ccccc1)c1cc(C(C)(C)C)cc(C(C)(C)C)c1O` (stereo not given), the TGI in assay [1] is 32.7 µM; in assay [2] it was 32.2 µM; in [3], 33.9 µM; in assay [4], 34 µM; in assay [5], 34.2 µM; in [6], 29.8 µM. Moreover, the TGI in assay [7] stood at 31.9 µM; in assay [8], 30.1 µM; in assay [9], 32 µM; in [10] it was 28.5 µM.
Regarding `COc1ccc2c(c1)-c1c(c3cc(OC)ccc3n(CCN(C)C)c1=O)C2=O`, the GI50 was 2600 nM in assay [1]; 1.37 µM in assay [2]; 1800 nM in [3]; 280 nM in assay [4]; 1590 nM in assay [5]; 388 nM in assay [6]. Also, the GI50 was 658 nM in assay [7], 2650 nM in assay [8], 950 nM in assay [9] and 445 nM in [10]. For the same compound, the TGI in assay [1] was 8.92 µM; in assay [2] it was 10.2 µM; in assay [3], 10.2 µM; in assay [4] it was 3.09 µM; in [5], 7.23 µM; in assay [6], 2.97 µM. Besides, the TGI was 1.85 µM in assay [7], 50 µM in [8], 5.73 µM in [9] and 1.97 µM in assay [10].
For `CC12O[C@H](C[C@@H](OC(=O)CCC(=O)O)[C@H]1O)n1c3ccccc3c3c4c(c5c6ccccc6n2c5c31)C(=O)NC4=O`, the GI50 in assay [1] is 1410 nM; in assay [2] it was 7.28 µM; in assay [3], 239 nM; in assay [4], 5070 nM; in assay [5], 598 nM; in assay [6] it was 1550 nM. Further, the GI50 in [7] was 1470 nM; in assay [8] it was 738 nM; in assay [9], 708 nM; in [10], 5980 nM. The TGI in [1] was 6.69 µM; in [2], > 50 µM; in [3], 6.54 µM; in [4], > 50 µM; in assay [5] it was 4.16 µM; in assay [6], > 50 µM. For the same compound, the TGI was 7.88 µM in [7], 4.77 µM in assay [8], 7.08 µM in assay [9] and 24.3 µM in assay [10].
Take `N#Cc1c(N)nc(N2CCOCC2)c(C#N)c1-c1c(Cl)cccc1Cl`: the GI50 is 7270 nM in assay [1]; 7.92 µM in assay [2]; 2470 nM in assay [3]; 3300 nM in [4]; 4580 nM in [5]; 10300 nM in [6]. The GI50 in [7] is 5880 nM; in assay [8], 4680 nM; in assay [9], 1570 nM; in assay [10], 4410 nM. For the same compound, the TGI was 21 µM in assay [1]; > 100 µM in [2]; 7.42 µM in [3]; 11.7 µM in assay [4]; 28.3 µM in assay [5]; 95.6 µM in [6]. Moreover, the TGI amounted to 24 µM in assay [7], 46 µM in assay [8], 3.8 µM in assay [9] and 47.5 µM in assay [10].
`Cc1c(-c2ccccn2)ccc2ccccc12`: the TGI was > 100 µM in [1]; > 100 µM in assay [2]; > 100 µM in assay [3]; > 100 µM in [4]; 93.2 µM in [5]; > 100 µM in [6]. The TGI is > 100 µM in [7], > 100 µM in assay [8], > 100 µM in assay [9] and 44.1 µM in assay [10].
In the case of `CC(=O)c1c(C)c2cnc(Nc3ccc(N4CCNCC4)cn3)nc2n(C2CCCC2)c1=O`, the GI50 is 2580 nM in [1]; 12.5 µM in [2]; 9130 nM in assay [3]; 3340 nM in [4]; 2870 nM in assay [5]; 3690 nM in [6]. Moreover, the GI50 in [7] was 1460 nM; in assay [8], 803 nM; in [9] it was 6500 nM; in [10] it was 268 nM. In addition, the TGI came to 9.94 µM in assay [1]; 26.3 µM in assay [2]; 23.6 µM in assay [3]; 19.7 µM in assay [4]; 17.2 µM in [5]; 19.2 µM in assay [6]. Further, the TGI came out at 19.7 µM in assay [7], 22.8 µM in assay [8], 22 µM in assay [9] and 32.1 µM in [10].
